The text below walks through data of patent publication US20200325505A1, “FILAMENTOUS FUNGI CAPABLE OF PRODUCING VERY LONG CHAIN FATTY ACIDS” (UT-Battelle, LLC, priority 2019, published 2020).

Read-outs that look alike come from different tables or passages of the source.

The series has as its system Mortierella elongata AG77. The series is described as follows: Carbon source utilisation in Biolog 96-well plates, formazan formation after tetrazolium addition. Format: cell-based. To be noted: for Metabolized: Metabolized = more formazan formation than a control containing no carbon source, observed visually at 2 h, 24 h, 148 h; for Carbon sources that Mortierella elongata AG77 can metabolize: summary of Table 3. As for the experimental part: Two 300 mL volumes of growth medium comprising 1 g/L KH2PO4, 1 g/L MgSO4 7H2O, 0.1 g/L CaCl2, 0.02 g/L FeNaEDTA, 0.1 g/L NaCl, and either 1 g/L NH4NO3 or 20 g/L sucrose were prepared. Acidity was adjusted to 5.5 using NaOH and volumes of growth medium were autoclaved 30 min at 121° C. to sterilize. Aliquots of 200 μL of carbon-free medium or nitrogen-free medium were pipetted into each well of a set of 96-well plates previously prepared with lyophilized putative carbon or nitrogen sources (Biolog Inc., Hayward, Calif.). Inocula were prepared by perforating a culture of Mortierella elongata AG77 grown on 20 g/L potato dextrose agar with a 3 mm diameter cork borer and separating the surface mycelial mat from the solid growth medium using tweezers. Each well was inoculated with one inoculum. Cultures were incubated at 21° C. for 24 hours to allow metabolic changes to stabilize, and then 100 μL of 3 g/L tetrazolium chloride in water was added to each well. Formazan formation was observed visually at 2 h, 24 h, and 148 h.
Conclusions were based on rate and intensity of formazan formation using the 3-4,5-dimethylthiazol-2-yl)-2,5-diphenyltetrazolium bromide (MTT) assay. “Metabolized” indicates more formazan formation than a control containing no carbon source, and “Toxic” indicates less formazan formation than a control containing no carbon source. “Metabolized” and “Toxic” assignments are mutually exclusive. In this example, a compound may be “Metabolized” or “Toxic,” but not both.

Setting [1] is: compound as carbon source, Toxic = less formazan formation than a control containing no carbon source.

On to `OC[C@H]1O[C@@H](O[C@@H]2[C@@H](CO)OC(O)(CO)[C@H]2O)[C@H](O)[C@@H](O)[C@H]1O` (mixture of isomers) [Lactulose], for which the Toxic entry is reported as “no”. Further, under “compound as carbon source”, the Metabolized entry is given as “no”.
Regarding `C[N+](C)(C)CC(O)CC(=O)[O-]` (racemic) [D,L-Carnitine], the “Carbon sources that Mortierella elongata AG77 can metabolize” value was “can metabolize”. For the same compound, the Metabolized result (compound as carbon source) is given as “yes”. Further, the Toxic result under setting [1] is “no”.
Take `O=C(O)CC(O)C(=O)O` (racemic) [D,L-Malic Acid]: the Metabolized result (compound as carbon source) is “no”. Under setting [1], the Toxic entry is recorded as “no”.
For `NCC(O)c1ccc(O)cc1` (racemic) [D,L-Octopamine], the Metabolized entry (compound as carbon source) is listed as “no”. In addition, under setting [1], the Toxic entry is reported as “no”.
For `O=P(O)(O)OCC(O)CO` (racemic) [D,L-α-Glycerol- Phosphate], the Metabolized result (compound as carbon source) was “no”. Besides, the Toxic entry under setting [1] is “no”.
Take `CC(O)CO` (stereo not shown) [1,2-Propanediol]: the “Carbon sources that Mortierella elongata AG77 can metabolize” value is on record as “can metabolize”. Besides, the Metabolized entry (compound as carbon source) is reported as “yes”. Under setting [1], the Toxic result is on record as “no”.
Take `CC(O)C(C)O` (stereo not shown) [2,3-Butanediol]: the Toxic entry was “no”. Where the note is “compound as carbon source”, the Metabolized entry is “no”.
Consider `CC(=O)C(C)=O` [2,3-Butanedione], for which, for the setting “compound as carbon source”, the Metabolized entry is “no”. Moreover, the Toxic result under setting [1] was “no”.
As for `Nc1ncnc2c1ncn2C1CC(O)C(CO)O1` (stereo not shown) [2-Deoxy Adenosine], the Metabolized entry (compound as carbon source) is listed as “no”. In addition, under setting [1], the Toxic entry is “no”.
Turning to `O=CC[C@H](O)[C@H](O)CO` [2-Deoxy-D-Ribose], the Toxic result is given as “no”. Also, the Metabolized entry (compound as carbon source) was “no”.
Take `O=C(O)c1ccccc1O` [2-Hydroxy Benzoic Acid]: the Metabolized entry (compound as carbon source) is recorded as “no”.
With `O=C[C@@H](O)[C@H](O[C@@H]1O[C@H](CO)[C@H](O)[C@H](O)[C@H]1O)[C@H](O)CO` [3-0-β-D-Galacto-pyranosyl-D-Arabinose], the Metabolized result (compound as carbon source) is listed as “no”. For the same compound, under setting [1], the Toxic entry is “no”.
Consider `CC(=O)C(C)O` (stereo not shown) [3-Hydroxy 2-Butanone], for which the Metabolized result (compound as carbon source) is “no”. The Toxic entry under setting [1] is “no”.
`O=C(O)c1ccc(O)cc1` [4-Hydroxy Benzoic Acid]: the Toxic result was “no”. For the same compound, the Metabolized entry (compound as carbon source) was “no”.
On to `O=C(CO)[C@@H](O)[C@H](O)[C@@H](O)C(=O)O` [5-Keto-D-Gluconic Acid], for which, for the setting “compound as carbon source”, the Metabolized entry is on record as “no”. The Toxic entry under setting [1] was “no”.
Take `CC(=O)O` [Acetic Acid]: the Metabolized entry (compound as carbon source) is recorded as “no”.
As to `CC(=O)CC(=O)O` [Acetoacetic Acid], the Toxic entry is on record as “no” and the “Carbon sources that Mortierella elongata AG77 can metabolize” value is “can metabolize”. Moreover, where the note is “compound as carbon source”, the Metabolized result was “yes”.
For `OC[C@@H](O)[C@@H](O)[C@@H](O)CO` [Adonitol], the Toxic result is recorded as “no”. The Metabolized result (compound as carbon source) was “no”.
Take `N#C[C@H](O[C@@H]1O[C@H](CO[C@@H]2O[C@H](CO)[C@@H](O)[C@H](O)[C@H]2O)[C@@H](O)[C@H](O)[C@H]1O)c1ccccc1` [Amygdalin]: the Metabolized entry (compound as carbon source) is listed as “no”. The Toxic entry under setting [1] is given as “no”.
As for `OC[C@H]1O[C@@H](Oc2ccc(O)cc2)[C@H](O)[C@@H](O)[C@@H]1O` [Arbutin], under “compound as carbon source”, the Metabolized result was “no”. Moreover, under setting [1], the Toxic result is reported as “no”.
As for `O=C(O)CC(Br)C(=O)O` (stereo not shown) [Bromo Succinic Acid], under “compound as carbon source”, the Metabolized result is listed as “no”. In addition, the Toxic entry under setting [1] is reported as “no”.
Take `CCCC(=O)O` [Butyric Acid]: the Toxic result is recorded as “no”. In addition, the Metabolized result (compound as carbon source) was “no”.
As to `CCCCCCCCCC(=O)O` [Capric Acid], the Toxic entry is given as “no”. For the same compound, for the setting “compound as carbon source”, the Metabolized result is given as “no”.
In the case of `CCCCCC(=O)O` [Caproic Acid], the Metabolized result (compound as carbon source) is given as “no”. Also, the Toxic entry under setting [1] is listed as “no”.
With `C/C(=C/C(=O)O)C(=O)O` [Citraconic Acid], the Toxic entry is listed as “no”. Also, the Metabolized result (compound as carbon source) was “no”.
With `CC(O)(CC(=O)O)C(=O)O` (stereo not shown) [Citramalic Acid], the Toxic result is given as “no”. The Metabolized entry (compound as carbon source) is “no”.
For `O=C(O)CC(O)(CC(=O)O)C(=O)O` [Citric Acid], the “Carbon sources that Mortierella elongata AG77 can metabolize” value is reported as “can metabolize”. Besides, the Metabolized entry (compound as carbon source) is listed as “yes”.
As for `O=C[C@@H](O)[C@H](O)[C@H](O)CO` [D-Arabinose], the Toxic result is listed as “no”. Moreover, the Metabolized result (compound as carbon source) is listed as “no”.
As to `OC[C@@H](O)C(O)[C@H](O)CO` [D-Arabitol], the Metabolized entry (compound as carbon source) is recorded as “no”. Further, the Toxic entry under setting [1] was “no”.
In the case of `OC[C@H]1O[C@@H](O[C@H]2[C@H](O)[C@@H](O)[C@H](O)O[C@@H]2CO)[C@H](O)[C@@H](O)[C@@H]1O` [D-Cellobiose], where the note is “compound as carbon source”, the Metabolized entry is given as “no”.
For `O=C(CO)[C@@H](O)[C@H](O)[C@H](O)COP(=O)(O)O` [D-Fructose-6-Phosphate], the “Carbon sources that Mortierella elongata AG77 can metabolize” value is “can metabolize”. In addition, where the note is “compound as carbon source”, the Metabolized result is reported as “yes”. Also, under setting [1], the Toxic entry is “no”.
For the compound `O=C(CO)[C@@H](O)[C@H](O)[C@H](O)CO` [D-Fructose], the Toxic result is “no”. For the same compound, under “compound as carbon source”, the Metabolized entry was “no”.
Regarding `C[C@@H](O)[C@H](O)[C@H](O)[C@@H](O)C=O` [D-Fucose], the “Carbon sources that Mortierella elongata AG77 can metabolize” value is listed as “can metabolize”. Under “compound as carbon source”, the Metabolized entry is “yes”. Also, the Toxic entry under setting [1] is on record as “no”.
Turning to `O=C1O[C@@H]([C@H](O)CO)[C@H](O)[C@H]1O` [D-Galactonic Acid-γ-Lactone], the “Carbon sources that Mortierella elongata AG77 can metabolize” value is reported as “can metabolize”. The Metabolized entry (compound as carbon source) is reported as “yes”. The Toxic result under setting [1] was “no”.
For `O=C[C@H](O)[C@@H](O)[C@@H](O)[C@H](O)CO` [D-Galactose], the Toxic entry is “no”. Also, the Metabolized result (compound as carbon source) is “no”.
As for `O=C[C@H](O)[C@@H](O)[C@@H](O)[C@H](O)C(=O)O` [D-Galacturonic Acid], the Toxic result is “no”. The Metabolized result (compound as carbon source) is reported as “no”.
Turning to `O=C(O)[C@H](O)[C@@H](O)[C@H](O)[C@H](O)CO` [D-Gluconic Acid], the Metabolized result (compound as carbon source) is reported as “no”. The Toxic result under setting [1] is given as “no”.
Turning to `N[C@@H](C(=O)O)[C@@H](O)[C@H](O)[C@H](O)CO` [D-Glucosaminic Acid], the “Carbon sources that Mortierella elongata AG77 can metabolize” value was “can metabolize”. For the same compound, where the note is “compound as carbon source”, the Metabolized entry was “yes”. In addition, the Toxic result under setting [1] is “no”.
Regarding `O=P(O)(O)O[C@H]1O[C@H](CO)[C@@H](O)[C@H](O)[C@H]1O` [D-Glucose-1-Phosphate], the “Carbon sources that Mortierella elongata AG77 can metabolize” value is recorded as “can metabolize”. Further, where the note is “compound as carbon source”, the Metabolized result is listed as “yes”.
As to `O=C[C@H](O)[C@@H](O)[C@H](O)[C@H](O)COP(=O)(O)O` [D-Glucose-6-Phosphate], the Toxic result is reported as “no” and the “Carbon sources that Mortierella elongata AG77 can metabolize” value is “can metabolize”. Besides, the Metabolized entry (compound as carbon source) was “yes”.
With `O=C[C@H](O)[C@@H](O)[C@H](O)[C@H](O)C(=O)O` [D-Glucuronic Acid], the Toxic entry is recorded as “no” and the “Carbon sources that Mortierella elongata AG77 can metabolize” value is on record as “can metabolize”. For the same compound, the Metabolized entry (compound as carbon source) is on record as “yes”.
With `COC(=O)[C@@H](C)O` [D-Lactic Acid Methyl Ester], the “Carbon sources that Mortierella elongata AG77 can metabolize” value was “can metabolize”. For the same compound, under “compound as carbon source”, the Metabolized result was “yes”. Under setting [1], the Toxic entry is listed as “no”.
